In series [1] the test system is senescent fibroblasts (after 37 cell passages). The series is described as follows: cell proliferation and colony formation, crystal violet stain. In kind it is cell-based, human. As to conditions: 4 weeks; for cell proliferation and cell colony formation: vs DMSO. Here is the method:
(§1) Fibroblast cell lines were cultured in Dulbecco's Modified Eagle's Media (DMEM) supplemented with 10% fetal bovine serum (FBS) and 100 unit/ml of penicillin, and 100 μg/ml of streptomycin (two antibiotics are purchased from Gibro-BRL and Grand Island, N.Y.) in a 5% CO2 incubator at 37° C. The fibroblast cell lines (M11 strain) were obtained from a foreskin of a child. Subculture was initiated when the cells were approximately 85% confluent in plates. Early subcultures were performed at a split ratio of 1:4, and later subcultures were performed at a split ratio of 1:2. When cell doubling time was 14 days, the cells were regarded as senescent fibroblasts (passages 35 to 37).
In order to determine optimum concentrations of Rho-kinase inhibitors Y-27632 (Selleckchem, S1049, 50 mg 2HCl salt form), FASUDIL (Selleckchem, S1573, 500 mg HCl salt form), and SR3677 (Synkinase, SYN1083, 10 mg), the senescent fibroblasts (after 37 cell passages) were seeded on each well of a 6-well plate in a concentration of 2,000 cells/well, and the wells were treated with 1 μM, 5 μM, 10 μM, 20 μM, and 30 μM of Y-27632, 1 μM, 5 μM, 10 μM, 20 μM, and 30 μM of FASUDIL, and 0.01 μM, 0.05 μM, 0.1 μM, 0.5 μM, and 1 μM of SR3677. In addition, a negative control group was prepared in the same manner, except that dimethyl sulfoxide (DMSO) was used. The culture media supplemented with the Rho-kinase inhibitors were changed at every 4 days, and colonies were stained with a 0.05% crystal violet stain after 4 weeks.

For series [2], the system named is senescent myoblasts (11 cell passages). The series is described as follows: mitochondrial membrane potential (JC-1) by flow cytometry. As to conditions: vs control, p<0.05, FIG. 16. The format is cell-based, Human. Here is the method: (§2) Myoblast cell lines (Human Skeletal Muscle Myoblasts, Lonza CC-2580 LOT:0000387550) were cultured in SkBM™-2 Basal Media (Lonza CC-3246) including an SkGM™-2 SingleQuots™ Kit (Lonza CC-3244) on plates coated with Collagen Type I (Greiner Bio One, 658950) in a 5% CO2 incubator at 37° C. Subculture was initiated when the cells were approximately 85% confluent in plates. Early subcultures were performed at a split ratio of 1:4, and later subcultures were performed at a split ratio of 1:2. When cell doubling time was 14 days, the cells were regarded as senescent myoblasts (cell passages 10 to 12).
Senescent cells were seeded on each well of a 6-well plate coated with Collagen Type I (Greiner Bio One, 657950) in a concentration of 2,000 cells/well. Senescent myoblasts (passage 11) were cultured in the presence of 5 μM of Y-27632, 5 μM of FASUDIL, and 0.5 μM of SR3677 for 4 weeks in a 5% CO2 incubator at 37° C. The culture media were changed at every 4 days with new culture media supplemented with 5 μM of Y-27632, 5 μM of FASUDIL, and 0.5 μM of SR3677. A negative control group was prepared in the same manner, except that 0.05 (v/v) % of DMSO was used.
Mitochondrial membrane potentials were measured using a MitoProbe™ JC-1 Assay kit for Flow Cytometry (Life technologies, T3168) according to manufacturer's manuals. JC-1 is accumulated in mitochondria in a potential-dependent manner, and this accumulation is identified by fluorescence emission shift from green (about 529 nm) to red (about 590 nm). As a result, mitochondrial depolarization is identified by a decrease in a red/green fluorescence ratio. The mitochondrial membrane potentials were measured by excitation at 488 nm using a FACSCaliber (Beckton Dickinson) and using a flow cytometer by using 530/30 nm and 585/42 nm band pass filters. The results were analyzed using Cell Quest 3.2 software (Beckton Dickinson).

Series [3] shares this test system. The series is described as follows: lipofuscin autofluorescence by flow cytometry. In kind it is cell-based, Human. As to conditions: 4 weeks, vs control, p<0.05, FIG. 14. The procedure: as §2
(§3) In addition, amounts of lipofuscin accumulated in the cultured cells were measured. Senescent myoblasts (11 cell passages) were cultured in the presence of 5 μM of Y-27632, 5 μM of FASUDIL, and 0.5 μM of SR3677 for 4 weeks in a 5% CO2 incubator at 37° C. The culture media were changed at every 4 days with new culture media supplemented with 5 μM of Y-27632, 5 μM of FASUDIL, and 0.5 μM of SR3677. Since lipofuscin has autofluorescence characteristics, light having a wavelength of 488 nm was irradiated to the cells by using a FACSCaliber (Beckton Dickinson) and light emission at 520 nm was measured. The results were analyzed using Cell Quest 3.2 software (Beckton Dickinson). FIG. 14 is a graph displaying amounts of lipofuscin in myoblasts (11 cell passages) cultured in the presence of Rho-kinase inhibitors Y-27632 (5 μM), Fasudil (5 μM), and SR3677 (0.5 μM). […] In FIG. 14, * indicates statistically significant (p<0.05).

In series [4] the test system is senescent progeric fibroblasts (passage 17). The series is described as follows: lipofuscin autofluorescence by flow cytometry. Conditions: 4 weeks, vs control, p<0.05, FIG. 18. The format is cell-based, human. Here is the method:
as §1, with “Progeric fibroblasts (Hutchinson-Gilford Progeria Syndrome Skin Fibroblasts, Coriell Cell Repositories, AG03198 B)” for “Fibroblast cell lines”, “serpm” for “serum”, “Subculturing” for “The fibroblast cell lines (M11 strain) were obtained from a foreskin of a child. Subculture”, “senescent progeric” for “senescent”, “(cell passages 16” for “(passages 35”, “17).” for “37).”
as §3, with “addition, the” for “addition,”, “progeric fibroblasts (passage 17)” for “myoblasts (11 cell passages)”, “18” for “14”, “18,” for “14,”

The values that follow come from patent publication US9943525B2, “Composition for reducing cell senescence comprising Rho-kinase inhibitor and use thereof” (Samsung Electronics Co., Ltd., priority 2014, dated 2018).

Regarding `O=S(=O)(c1cccc2cnccc12)N1CCCNCC1` [FASUDIL, 5-(1,4-diazepane-1-sulfonyl)isoquinoline], in series [1] (5 μM, FIG. 1 B), the “cell proliferation and cell colony formation” value was “greatest therapeutic effects”. Further, the “toxic effects on cell proliferation and cell colony formation” value (“toxic effects” for short) in series [1] (10 μM, 20 μM, and 30 μM, FIG. 1 B) is “reduces cell proliferation and cell colony formation due to toxic effects”. Also, the “action potentials of mitochondria (mitochondrial membrane potential)” value (from here on “action potentials of mitochondria”) in series [2] (5 μM) was “significantly increased”. In addition, the amounts of lipofuscin result in series [3] (5 μM) and in series [4] (5 μM) was “significantly reduced” throughout.

Take `C[C@@H](N)[C@H]1CC[C@H](C(=O)Nc2ccncc2)CC1` [Y-27632, (1R,4R)-4-((R)-1-aminoethyl)-N-(pyridin-4-yl)cyclohexanecarboxamide]: in series [1] (5 μM, 10 μM, and 20 μM, FIG. 1 A), the “cell proliferation and cell colony formation” value was “greatest therapeutic effects”. The “toxic effects” value in series [1] (30 μM, FIG. 1 A) was “reduces cell proliferation and cell colony formation due to toxic effects”. In addition, the “action potentials of mitochondria” value in series [2] (5 μM) is given as “significantly increased”. In addition, the amounts of lipofuscin result in series [3] (5 μM) and in series [4] (5 μM) was “significantly reduced” in each case.

Take `CN(C)CCOc1cc(-c2cn[nH]c2)ccc1NC(=O)C1COc2ccccc2O1` (stereo not drawn) [SR3677]: the “cell proliferation and cell colony formation” value in series [1] (0.5 μM, FIG. 1 C) is on record as “greatest therapeutic effects”. Also, the “toxic effects” value in series [1] (1 μM, FIG. 1 C) is “reduces cell proliferation and cell colony formation due to toxic effects”. Further, the “action potentials of mitochondria” value in series [2] (0.5 μM) is recorded as “significantly increased”. Moreover, the amounts of lipofuscin entry in series [3] (0.5 μM) and in series [4] (0.5 μM) was “significantly reduced” throughout.
